The subject of data set [1] is pLai RLuc reporter virus. In words: microbe, parasite or virus in culture. The class given is cell-based, HIV. In a few lines: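 MT-4 cells pre-infected 2 h at 37 °C with pLai RLuc virus, then exposed to 1:3 serial dilutions of compound in RPMI/10% FBS with or without 50% human serum for 72 h at 37 °C. Renilla luminescence read-out; serum shift = EC50(HS/CCM)/EC50(CCM).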

Data set [2] relates to HIV-1 (IIIB). Briefly: Antiviral assay in MT-4 cells (HIV MT-4 antiviral assay). The data set is classed as cell-based. The settings on record: HIV-1 (IIIB) in MT-4 cells, 5 days incubation. In short, it runs like this:
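MT-4 cells infected with HIV-1 IIIB (1:250 diluted stock) and exposed to 1:3 serially diluted compound in RPMI with 10% FBS. Viability read by CellTiter-Glo luminescence after 5 days at 37° C; mock-infected cells and 5 μM AZT as controls.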

Data set [3] deals with uninfected MT-4 cells. Briefly: Cytotoxicity assay in MT-4 cells. The data set is classed as cell-based, human. The following applies: uninfected MT-4 cells, 5 days incubation. In a few lines: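 Infected MT-4 cells (HIV-1 IIIB, fresh 1:250 dilution of concentrated stock) or mock-infected cells exposed to compounds for 5 days at 37 °C. Viability by CellTiter-Glo luminescence; 5 μM AZT positive control, no-drug negative control. Uninfected cells used for cytotoxicity, with 10 μM puromycin as base-level cytotoxicity control.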

Setting [4] is: Human immunodeficiency virus 1, 72 h, read-out: Antiviral Serum Shift RLuc CCM, CCM (RPMI media, 10% FBS, 1% P/S), 72-h incubation.
Where [5] appears, read: read-out: Antiviral Serum Shift RLuc 50% HS, HS/CCM (RPMI media, 10% FBS, 50% HS, 1% P/S), 72-h incubation.
[6] abbreviates: read-out: Antiviral Serum Shift RLuc CCM, CCM (RPMI media, 10% FBS, 1% P/S), 72-h incubation.
[7] abbreviates: CCM (RPMI media, 10% FBS, 1% P/S), 72-h incubation, read-out: Antiviral Serum Shift RLuc CCM.
The mark [8] stands for this setting: HS/CCM (RPMI media, 10% FBS, 50% HS, 1% P/S), 72-h incubation, read-out: Antiviral Serum Shift RLuc 50% HS.

For orientation: CC50 means the concentration giving 50% cytotoxicity. Lower therefore signals greater toxicity to the cells.

Like-named read-outs stand apart in the source and are kept apart here.

With `O=C(NCc1ccc(F)cc1F)c1cn2c(c(O)c1=O)C(=O)N1CC2CCc2cc(F)ccc21` (single isomer, unassigned) [Example 55-2], the EC50 in data set [1] (Human immunodeficiency virus 1, 72 h, read-out: Antiviral Serum Shift RLuc 50% HS, HS/CCM (RPMI media, 10% FBS, 50% HS, 1% P/S), 72-h incubation) amounted to 1.32 nM; in data set [1] (setting [4]), 0.312 nM; in data set [2], 1.8 nM. The CC50 in data set [3] came to 7330 nM.

`O=C(NCc1ccc(F)cc1F)c1cn2c(c(O)c1=O)C(=O)N1C[C@@H]2CCC[C@@H]1CF` [Example 181, (3R,7S)—N-(2,4-difluorobenzyl)-3-(fluoromethyl)-12-hydroxy-1,11-dioxo-1,4,5,6,7,11-hexahydro-3H-2,7-methanopyrido[1,2-a][1,4]diazonine-10-carboxamide]: the EC50 in data set [1] (setting [5]) amounted to 7.65 nM; in data set [1] (setting [6]), 0.385 nM; in data set [2] (read-out: EC50) it was 1.08 nM. This compound had a CC50 in data set [3] of 9710 nM.

With `O=C(NCc1ccc(F)cc1F)c1cn2c(c(O)c1=O)C(=O)N1C[C@H](F)CC[C@H]2C1` (single isomer, unassigned) [Example 53-1], the EC50 in data set [1] (setting [4]) is 0.541 nM; in data set [1] (setting [5]), 6.13 nM; in data set [2] (read-out: EC50), 2.13 nM. For the same compound, the CC50 in data set [3] is 13200 nM.

As for `CC1CCCN2CC1n1cc(C(=O)NCc3ccc(F)cc3F)c(=O)c(O)c1C2=O` (stereo not drawn) [Example 17-2b, N-(2,4-difluorobenzyl)-12-hydroxy-6-methyl-1,11-dioxo-1,4,5,6,7,11-hexahydro-3H-2,7-methanopyrido[1,2-a][1,4]diazonine-10-carboxamide], the EC50 was 101 nM in data set [1] (setting [5]), 0.31 nM in data set [1] (setting [6]) and 1.2 nM in data set [2] (read-out: EC50). In addition, the midpoint of cytotoxicity in data set [3], the CC50, lay at 11000 nM.

Consider “(3S,7S)-5-fluoro-12-hydroxy-3-methyl-1,11-dioxo-N-(2,4,6-trifluorobenzyl)-1,6,7,11-tetrahydro-3H-2,7-methanopyrido[1,2-a][1,4]diazonine-10-carboxamide [Example 118-2]”, for which the EC50 was determined as 0.249 nM in data set [1] (setting [7]), 0.507 nM in data set [1] (setting [8]) and 1.17 nM in data set [2] (read-out: EC50). In data set [3], this compound registered a CC50 of 11600 nM.

Consider `O=C(NCc1c(F)cc(F)cc1F)c1cn2c(c(O)c1=O)C(=O)N1CCCC(CF)C2C1` (single isomer, unassigned) [Example 194-2, 6-(fluoromethyl)-12-hydroxy-1,11-dioxo-N-(2,4,6-trifluorobenzyl)-1,4,5,6,7,11-hexahydro-3H-2,7-methanopyrido[1,2-a][1,4]diazonine-10-carboxamide], for which the EC50 is 2.99 nM in data set [1] (setting [5]), 0.378 nM in data set [1] (setting [6]) and 1.5 nM in data set [2] (read-out: EC50). The CC50 in data set [3] is 10500 nM.

`O=C(NCc1c(F)cc(F)cc1F)c1cn2c(c(O)c1=O)C(=O)N1CCCC(CF)C2C1` (single isomer, unassigned) [Example 194-4, 6-(fluoromethyl)-12-hydroxy-1,11-dioxo-N-(2,4,6-trifluorobenzyl)-1,4,5,6,7,11-hexahydro-3H-2,7-methanopyrido[1,2-a][1,4]diazonine-10-carboxamide]: the EC50 in data set [1] (setting [5]) worked out at 3.48 nM; in data set [1] (setting [6]), 0.397 nM; in data set [2] (read-out: EC50) it was 1.75 nM. In addition, the CC50 in data set [3] was determined as 11300 nM.

Regarding “(3S,7S)-5-fluoro-12-hydroxy-3-methyl-1,11-dioxo-N-(2,4,6-trifluorobenzyl)-1,4,7,11-tetrahydro-3H-2,7-methanopyrido[1,2-a][1,4]diazonine-10-carboxamide [Example 118-1]”, the EC50 in data set [1] (setting [7]) is 0.296 nM; in data set [1] (setting [8]), 0.881 nM; in data set [2] (read-out: EC50), 0.79 nM. Also, in data set [3], it took 11500 nM to reach half-maximal cytotoxicity (CC50).

Take `CC[C@]12CCCCN(C1)C(=O)c1c(O)c(=O)c(C(=O)NCc3ccc(F)cc3F)cn12` [Example 134-1, (7S)—N-(2,4-difluorobenzyl)-7-ethyl-12-hydroxy-1,11-dioxo-1,4,5,6,7,11-hexahydro-3H-27-methanopyrido[1,2-a][1,4]diazonine-10-carboxamide]: the EC50 in data set [2] (read-out: EC50) turned out to be 3.29 nM. The compound also gave a CC50 in data set [3] of 16200 nM.

In the case of `O=C(NCc1ccc(F)cc1F)c1cn2c(c(O)c1=O)C(=O)N1CC2CCc2cc(F)c(F)cc21` (single isomer, unassigned) [Example 50-2], the EC50 in data set [2] came to 32.5 nM. The compound further registered a CC50 in data set [3] of 32300 nM.

The record behind these values is patent publication US12227520B2 (priority 2019, dated 2025).
